Assay results from US5750104A, “High buffer-containing enteric coating digestive enzyme bile acid compositions and method of treating digestive disorders therewith” (Digestive Care Inc., priority 1996, dated 1998).

Tests used:
[1] = cited from earlier work
pancreatic enzymes = test: Compatibility and biological activity of pancreatic enzymes in acidic UDCA compositions; format: biochemical; settings: acidic form of UDCA
Source text: Pancreatic enzymes and salts of UDCA complement one another in the digestive system of a mammal. A dietary supplement containing both the enzymes and salts of UDCA would provide in a convenient pre-determined dose the remedy needed to treat the above-described diseased states. […] Lipase is especially affected by the low pH for the reasons that: […]

In the case of C[C@H](CCC(=O)O)[C@H]1CC[C@H]2[C@@H]3[C@@H](O)C[C@@H]4C[C@H](O)CC[C@]4(C)[C@H]3CC[C@]12C [UDCA, ursodeoxycholic acid], the “benefit at higher dosage” value ([1]; about 30 mg/kg of body weight, some patients) is given as “limited benefits”, the “effect on liver function” value ([1]; human, in vivo) is given as “augmenting liver function” and the undesirable side effects ([1]; human, in vivo) is given as “severe diarrhea”. For the same molecule, the “effect on nutritional state” value ([1]; patients having cystic fibrosis, hepatobiliary complications) was “improving the nutritional state” and the “compatibility with pancreatic enzymes” value (pancreatic enzymes) was “incompatible with pancreatic enzymes”.
